Measurements as given in ChEMBL document CHEMBL3779874, “Pyridones as Highly Selective, Noncovalent Inhibitors of T790M Double Mutants of EGFR” (ACS Med Chem Lett, 2016).
In brackets after ≈: the same amount, converted by molar mass. Activity calls are given as the source filed them. The calls are words filed in the database; no cut-off is given here.

Tests used:
Homo sapiens [1] = species: Homo sapiens; assay: Selectivity ratio of Ki(app) for human N-terminal GST-tagged EGFR catalytic domain (669 to 1210 residues) expressed in baculovirus expression system to Ki(app) for human EGFR catalytic domain (668 to 1210 residues) T790M/L858R double mutant
[2] = target: Epidermal growth factor receptor (Homo sapiens, UniProt P00533); assay: Inhibition of human N-terminal GST-tagged EGFR catalytic domain (669 to 1210 residues) expressed in baculovirus expression system using Fl-EEPLYWSFPAKKK-CONH2 peptide substrate preincubated for 30 mins followed by substrate addition measured after 30 mins by Caliper Mobility Shift Assay; conditions: read-out: Ki(app)
[3] = target: T1, Epidermal growth factor receptor (Homo sapiens, UniProt P00533, L858R/T790M); assay: Inhibition of human EGFR catalytic domain (668 to 1210 residues) T790M/L858R double mutant using Fl-EEPLYWSFPAKKK-CONH2 peptide substrate preincubated for 30 mins followed by substrate addition measured after 30 mins by Caliper Mobility Shift Assay; assay type: protein assay; conditions: read-out: Ki(app)
Homo sapiens [4] = species: Homo sapiens; assay: Selectivity ratio of Ki(app) for JAK1 (unknown origin) to Ki(app) for human EGFR catalytic domain (668 to 1210 residues) T790M/L858R double mutant
Homo sapiens [5] = species: Homo sapiens; assay: Selectivity ratio of Ki(app) for JAK2 (unknown origin) to Ki(app) for human EGFR catalytic domain (668 to 1210 residues) T790M/L858R double mutant
[6] = target: T2, Tyrosine-protein kinase JAK2 (Homo sapiens, UniProt O60674); assay: Inhibition of JAK2 (unknown origin) at 1 uM
[7] = target: T1, Epidermal growth factor receptor; assay: Inhibition of EGFR T790M/L858R double mutant phosphorylation in human H1975 cells preincubated for 1 hr followed by EGF stimulation for 8 mins by electrochemiluminescent immunoassay; assay type: cell-based
[8] = Kinetic solubility of compound in pH7.4 DMSO/phosphate buffered saline after 24 hrs by chemiluminescent nitrogen detection method; assay type: physicochemical; conditions: pH 7.4, read-out: Kinetic_solubility
H1975 = assay: Ratio of EC50 for wild type EGFR phosphorylation in human H292 cells to EC50 for EGFR T790M/L858R double mutant phosphorylation in human H1975 cells; assay type: cell-based
[9] = Lipophilicity, log D of compound at pH 7.4; assay type: physicochemical; conditions: buffer
[10] = target: T2, Tyrosine-protein kinase JAK2; assay: Inhibition of JAK2 (unknown origin); conditions: read-out: Ki(app)
Homo sapiens [11] = species: Homo sapiens; assay: Selectivity ratio of Ki(app) for JAK1 (unknown origin) to Ki(app) for JAK2 (unknown origin)
[12] = target: Tyrosine-protein kinase JAK1 (Homo sapiens, UniProt P23458); assay: Inhibition of JAK1 (unknown origin); conditions: read-out: Ki(app)
Sequence of Tyrosine-protein kinase JAK1 (P23458 whole entry): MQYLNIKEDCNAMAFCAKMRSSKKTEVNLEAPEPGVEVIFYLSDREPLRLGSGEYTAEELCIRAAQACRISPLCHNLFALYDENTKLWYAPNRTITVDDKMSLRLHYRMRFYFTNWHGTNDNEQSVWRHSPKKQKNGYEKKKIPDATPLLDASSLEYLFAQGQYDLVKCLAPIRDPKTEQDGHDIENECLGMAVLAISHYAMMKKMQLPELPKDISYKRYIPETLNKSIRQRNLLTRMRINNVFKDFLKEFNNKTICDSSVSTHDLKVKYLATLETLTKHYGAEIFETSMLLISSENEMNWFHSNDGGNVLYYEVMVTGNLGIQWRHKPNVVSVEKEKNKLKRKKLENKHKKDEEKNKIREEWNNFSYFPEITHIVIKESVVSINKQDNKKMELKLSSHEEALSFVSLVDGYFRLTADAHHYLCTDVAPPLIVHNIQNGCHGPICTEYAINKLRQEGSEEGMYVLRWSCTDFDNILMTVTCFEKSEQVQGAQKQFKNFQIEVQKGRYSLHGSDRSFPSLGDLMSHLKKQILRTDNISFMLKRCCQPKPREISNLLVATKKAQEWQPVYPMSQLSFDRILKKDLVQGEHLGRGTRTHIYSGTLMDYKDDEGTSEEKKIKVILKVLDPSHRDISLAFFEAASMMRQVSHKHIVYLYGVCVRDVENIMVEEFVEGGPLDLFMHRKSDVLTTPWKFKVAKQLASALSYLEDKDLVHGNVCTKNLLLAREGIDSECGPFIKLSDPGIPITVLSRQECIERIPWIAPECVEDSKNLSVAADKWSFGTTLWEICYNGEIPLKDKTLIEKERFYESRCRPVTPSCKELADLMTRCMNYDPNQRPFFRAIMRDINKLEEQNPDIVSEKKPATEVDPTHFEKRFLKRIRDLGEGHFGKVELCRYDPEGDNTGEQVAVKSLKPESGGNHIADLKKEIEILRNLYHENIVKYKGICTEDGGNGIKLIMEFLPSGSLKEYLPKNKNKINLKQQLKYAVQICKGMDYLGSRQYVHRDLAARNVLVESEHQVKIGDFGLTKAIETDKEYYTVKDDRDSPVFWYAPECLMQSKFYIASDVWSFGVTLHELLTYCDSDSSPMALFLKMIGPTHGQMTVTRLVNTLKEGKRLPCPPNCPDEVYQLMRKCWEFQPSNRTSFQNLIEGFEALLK

Sequence of Epidermal growth factor receptor (Homo sapiens, UniProt P00533) (P00533 whole entry, the tested form may be a part): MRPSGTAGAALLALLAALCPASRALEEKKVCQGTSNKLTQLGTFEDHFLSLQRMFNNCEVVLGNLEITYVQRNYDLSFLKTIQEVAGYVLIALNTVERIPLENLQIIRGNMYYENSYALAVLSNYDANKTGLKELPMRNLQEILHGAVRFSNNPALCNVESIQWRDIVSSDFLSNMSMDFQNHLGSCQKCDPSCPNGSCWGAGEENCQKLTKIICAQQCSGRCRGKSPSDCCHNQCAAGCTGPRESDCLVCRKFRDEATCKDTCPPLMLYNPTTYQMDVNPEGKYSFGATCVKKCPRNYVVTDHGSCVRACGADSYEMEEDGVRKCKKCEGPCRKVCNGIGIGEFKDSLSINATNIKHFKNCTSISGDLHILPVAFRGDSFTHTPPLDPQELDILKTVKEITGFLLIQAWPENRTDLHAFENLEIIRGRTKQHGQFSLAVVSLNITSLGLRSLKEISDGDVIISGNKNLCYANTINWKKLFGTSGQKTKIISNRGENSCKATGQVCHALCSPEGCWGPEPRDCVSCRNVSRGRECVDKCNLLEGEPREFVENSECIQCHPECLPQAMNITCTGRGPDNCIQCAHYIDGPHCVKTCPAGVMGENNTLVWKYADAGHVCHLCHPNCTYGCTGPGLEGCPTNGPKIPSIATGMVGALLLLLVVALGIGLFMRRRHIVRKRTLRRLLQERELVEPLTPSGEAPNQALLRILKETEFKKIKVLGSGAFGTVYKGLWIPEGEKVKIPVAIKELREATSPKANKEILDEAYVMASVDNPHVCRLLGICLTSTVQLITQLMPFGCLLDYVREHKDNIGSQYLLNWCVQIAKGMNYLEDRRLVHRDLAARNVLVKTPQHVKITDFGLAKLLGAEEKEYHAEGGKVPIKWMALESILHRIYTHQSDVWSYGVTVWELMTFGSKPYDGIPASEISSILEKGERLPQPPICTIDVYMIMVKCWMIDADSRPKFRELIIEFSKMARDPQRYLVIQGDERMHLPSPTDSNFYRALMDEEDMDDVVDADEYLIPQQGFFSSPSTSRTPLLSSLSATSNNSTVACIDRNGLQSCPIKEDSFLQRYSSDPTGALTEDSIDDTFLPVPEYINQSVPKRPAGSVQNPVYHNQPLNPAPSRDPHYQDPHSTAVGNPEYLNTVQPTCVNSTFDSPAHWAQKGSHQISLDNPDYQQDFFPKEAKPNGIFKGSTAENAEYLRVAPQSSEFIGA
T2 sequence (O60674 whole entry): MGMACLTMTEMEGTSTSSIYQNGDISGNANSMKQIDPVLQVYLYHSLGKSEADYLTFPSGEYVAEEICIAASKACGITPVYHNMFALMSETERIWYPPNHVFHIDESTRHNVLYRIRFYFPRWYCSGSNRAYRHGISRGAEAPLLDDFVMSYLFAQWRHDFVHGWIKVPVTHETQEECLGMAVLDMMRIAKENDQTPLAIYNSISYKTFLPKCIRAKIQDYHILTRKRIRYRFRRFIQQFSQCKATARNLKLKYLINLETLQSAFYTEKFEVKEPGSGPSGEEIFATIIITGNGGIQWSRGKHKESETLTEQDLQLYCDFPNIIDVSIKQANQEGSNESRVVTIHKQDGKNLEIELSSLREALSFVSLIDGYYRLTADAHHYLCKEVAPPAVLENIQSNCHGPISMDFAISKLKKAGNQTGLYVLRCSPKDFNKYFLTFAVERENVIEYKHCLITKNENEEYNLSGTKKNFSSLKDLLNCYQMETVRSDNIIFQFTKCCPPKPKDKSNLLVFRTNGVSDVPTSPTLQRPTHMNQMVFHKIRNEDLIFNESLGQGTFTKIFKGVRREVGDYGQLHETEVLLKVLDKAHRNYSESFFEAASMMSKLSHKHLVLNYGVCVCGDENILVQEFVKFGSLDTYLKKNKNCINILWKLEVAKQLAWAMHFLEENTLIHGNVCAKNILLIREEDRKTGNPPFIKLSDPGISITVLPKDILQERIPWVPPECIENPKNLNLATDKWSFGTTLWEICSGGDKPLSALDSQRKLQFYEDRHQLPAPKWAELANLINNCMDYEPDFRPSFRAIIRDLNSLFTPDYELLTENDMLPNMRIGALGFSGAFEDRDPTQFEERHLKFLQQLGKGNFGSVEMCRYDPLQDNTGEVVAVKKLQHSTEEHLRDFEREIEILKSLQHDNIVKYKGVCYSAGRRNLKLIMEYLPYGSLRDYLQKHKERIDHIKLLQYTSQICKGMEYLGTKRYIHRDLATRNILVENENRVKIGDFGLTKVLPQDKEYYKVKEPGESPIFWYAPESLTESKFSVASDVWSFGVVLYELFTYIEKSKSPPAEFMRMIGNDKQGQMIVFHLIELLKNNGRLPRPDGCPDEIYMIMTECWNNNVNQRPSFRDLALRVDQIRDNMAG

SMILES | Ratio Ki(app) (Homo sapiens [1]) | Ki [2] | Ki [3] | other results
CN1CCN(c2ccc(NC(=O)c3c(Nc4ccncn4)cc[nH]c3=O)cc2)CC1 | > 27 | > 2540 nM | 95 nM | 
COc1ccccc1Nc1cc[nH]c(=O)c1C(=O)Nc1ccc(N2CCN(C)CC2)cn1 | 1 | > 2500 nM | > 2060 nM | 
CN1CCN(c2ccc(NC(=O)c3c(Nc4ccccc4Cl)cc[nH]c3=O)cc2)CC1 | 18 | 1480 nM | 82 nM | 
COc1ccccc1Nc1cc[nH]c(=O)c1C(=O)Nc1ccc(N2CCN(C)CC2)c(C)c1 | 16 |  | 26 nM | Ratio Ki(app) (Homo sapiens [4]): 42; Ratio Ki(app) (Homo sapiens [5]): 0.9
CN1CCN(c2ccc(NC(=O)c3c(Nc4ccnc(N)n4)cc[nH]c3=O)cc2)CC1 | 213 | 850 nM | 4 nM | inhibition [6]: Active; Ratio Ki(app) (Homo sapiens [4]): 3; Ratio Ki(app) (Homo sapiens [5]): 2
CN1CCN(c2ccc(NC(=O)c3c(N)cc[nH]c3=O)cc2)CC1 | > 7 | > 2540 nM | 346 nM | 
O=C(Nc1ccccc1)c1c(NCCc2cccc(Cl)c2)cc[nH]c1=O | 2 | 1210 nM | 330 nM | 
COc1ccccc1Nc1cc[nH]c(=O)c1-c1nc2c(C(C)C)ccc(C)c2[nH]1 | 27 |  | 88 nM | Ratio Ki(app) (Homo sapiens [4]): 6; Ratio Ki(app) (Homo sapiens [5]): 0.3
CN1CCN(c2ccc(NC(=O)c3c(Nc4ccncc4N)cc[nH]c3=O)cc2)CC1 | > 8 | > 1230 nM | 145 nM | 
CN1CCN(c2ccc(NC(=O)c3c(Nc4ccccn4)cc[nH]c3=O)cc2)CC1 | > 24 | > 2540 nM | 108 nM | 
CN1CCN(c2ccc(NC(=O)c3c(NC[C@@H](O)c4cccc(Cl)c4)cc[nH]c3=O)cc2)CC1 | < 1 | 18 nM | 65 nM | EC50 [7]: 412 nM; solubility kinetic at 24 h [8]: 11 µM (≈ 5.3 µg/mL)
CN1CCN(c2ccc(NC(=O)c3c(NCCc4ccccc4)cc[nH]c3=O)cc2)CC1 | < 1 | 49 nM | 117 nM | 
COc1ccccc1Nc1cc[nH]c(=O)c1-c1nc2c(C(C)C)cccc2[nH]1 | 42 | 2400 nM | 58 nM | Ratio Ki(app) (Homo sapiens [4]): 2; Ratio Ki(app) (Homo sapiens [5]): 0.2
COc1ccccc1Nc1cc[nH]c(=O)c1C(=O)Nc1ccc(CN2CCN(C)CC2)cc1 | 22 | 1200 nM | 51 nM | 
CN1CCN(c2ccc(NC(=O)c3c(NCc4ccccc4)cc[nH]c3=O)cc2)CC1 | 1 | 349 nM | 350 nM | 
COc1ccccc1Nc1cc[nH]c(=O)c1C(=O)Nc1ccc(N2CCCN(C)CC2)cc1 | 57 | 705 nM | 12 nM | 

SMILES | Ratio Ki(app) (Homo sapiens [1]) | Ki [2] | Ki [3] | other results
CN1CCN(c2ccc(NC(=O)c3c(NCCc4cccc(Cl)c4)cc[nH]c3=O)cc2)CC1 | 1 | 43 nM | 66 nM | 
CN1CCN(c2ccc(NC(=O)c3c(Nc4ccccc4)cc[nH]c3=O)cc2)CC1 | > 18 | > 2540 nM | 144 nM | 
CN1CCN(c2ccc(NC(=O)c3c(Nc4cccc(Cl)c4)cc[nH]c3=O)cc2)CC1 | 16 | 2520 nM | 155 nM | 
COc1ccccc1Nc1cc[nH]c(=O)c1C(N)=O | > 3.6 | > 2500 nM | > 688 nM | 
COc1ccccc1N(C)c1cc[nH]c(=O)c1C(=O)Nc1ccc(N2CCN(C)CC2)cc1 | 1 | > 2540 nM | > 2060 nM | 
CN1CCN(c2ccc(NC(=O)c3c(NCCc4ccc(Cl)cc4)cc[nH]c3=O)cc2)CC1 | < 1 | 37 nM | 262 nM | 
COc1ccccc1Nc1cc[nH]c(=O)c1C(=O)Nc1ccc(C2CCN(C)CC2)cc1 | 29 | 634 nM | 15 nM | Ratio EC50 (H1975): > 23; logD [9]: 2.7; EC50 [7]: 433 nM; solubility kinetic at 24 h [8]: 61 µM (≈ 26.4 µg/mL)
CCc1cc(NC(=O)c2c(Nc3ccccc3OC)cc[nH]c2=O)ccc1N1CCN(C)CC1 | > 80 |  | 31 nM | Ratio Ki(app) (Homo sapiens [4]): 104; Ratio Ki(app) (Homo sapiens [5]): 4
COc1ccccc1Nc1cc[nH]c(=O)c1C(=O)Nc1ccc(N2CCN(C)CC2)nc1 | > 33 | > 2500 nM | 78 nM | logD [9]: 2.6; solubility kinetic at 24 h [8]: 65 µM (≈ 28.2 µg/mL)
COc1ccccc1Nc1cc[nH]c(=O)c1C(=O)Nc1ccc(N2CCN(C)CC2)cc1 | 58 | 1090 nM | 19 nM | inhibition [6]: Active; Ratio EC50 (H1975): 5; Ratio Ki(app) (Homo sapiens [4]): 9; logD [9]: 3.5; EC50 [7]: 1090 nM; Ki [10]: 9 nM; solubility kinetic at 24 h [8]: 4 µM (≈ 1.73 µg/mL); Ratio Ki(app) (Homo sapiens [5]): 0.5; Ratio Ki(app) (Homo sapiens [11]): 10; Ki [12]: 172 nM
Cc1ccccc1Nc1cc[nH]c(=O)c1C(=O)Nc1ccc(N2CCN(C)CC2)cc1 | 38 | 2340 nM | 61 nM | 
COc1ccccc1Nc1cc[nH]c(=O)c1C(=O)Nc1ccc(N2CCS(=O)(=O)CC2)cc1 | > 34 | > 1300 nM | 37 nM | 
COc1ccccc1Nc1cc[nH]c(=O)c1C(=O)Nc1ccc(N2CCC(C)CC2)cc1 | > 4.1 | > 2500 nM | 625 nM | 
CN1CCN(c2ccc(NC(=O)c3c(Nc4ccc(Cl)cc4)cc[nH]c3=O)cc2)CC1 | > 4 | > 2540 nM | 629 nM | 
CN(C)c1ccc(NC(=O)c2c(NCCc3cccc(Cl)c3)cc[nH]c2=O)cc1 | 1 | 757 nM | 290 nM | 
